Experimental data: US6447775B1, “Modulators of expression and function of LRP in Alzheimer's disease” (The General Hospital Corporation, priority 1995, dated 2002)
Entries after “also recorded” stand apart in the source; their conditions may differ.

Assays:
LRP = LRP (Homo sapiens, UniProt Q07954); assay: ELISA of LRP binding to APPs770 captured on zinc-coated wells; conditions: LRP 25 nM, RAP 0.2-450 nM
Procedure: In panel A, zinc-coated wells (∘) or zinc-coated wells incubated with APPs770 (●) were incubated with the APPs770 monoclonal antibody 7H5. In panel B, increasing concentrations of LRP (0.14-300 nM) were incubated for 18 h at 4° C. with zinc-coated wells (∘) or zinc-coated wells with captured APPs770 (●). Panel C, LRP (25 nM) was incubated with zinc-coated wells (∘) or zinc-coated wells with captured APPs770 (●) in the presence of increasing concentrations of RAP (0.2-450 nM). Bound receptor was detected with the monoclonal LRP antibody 8G1. In the absence of LRP there was no binding of 8G1 IgG to APPs770-coated wells. Plotted values represent means of duplicate determinations.

[1] = test system: LRP-expressing (MEF) cells; assay: Cellular internalization and degradation of 125I-labeled ligands by LRP-expressing mouse fibroblasts; format: cell-based
Procedure: (§1) Wells containing 2×10^5 LRP-expressing (MEF) or LRP-deficient (PEA13) cells were incubated with various concentrations (0.37-10 nM) of ^125I-APPs770 (Panels A and B) or 125I-APPs695 (Panels C and D) for 10 h at 37° C. in the absence of competitor (●) or in the presence of either 1 μM RAP (∘), or 100 μg/ml heparin (□). The cellular degradation of ^125I-labeled APPs770 by LRP-expressing MEF cells is shown in panel A and by LRP-deficient PEA13 cells in panel B. The cellular degradation of ^125I-APPs695 by LRP-expressing cells is depicted in panel C and by LRP-deficient cells in panel D. Plotted values represent means of duplicate determinations. Inset to panel B, autoradiogram of ^125I-labeled APPs770 (lane 1) and APPs695 (lane 2). The migration position of molecular mass standards are indicated on the right in kDa.
Wells containing 2×10^5 LRP-expressing (●) or LRP-deficient (∘) mouse fibroblasts were incubated with ^125I-LDL (8 μg/ml) or ^125I-α2M* (1.4 nM) for selected time intervals. […] Shown are the amounts of ^125I-LDL internalized (panel A) and degraded (panel B), ^125I-α2M* internalized (panel C) and degraded (panel D). The plotted values represent means of duplicate determinations.
Mouse fibroblasts (2×10^5 cells per well) were incubated for selected times with ^125I-APPs770 (1 nM) in the absence of competitor (●) or in the presence of either 1 μM RAP (∘), or 100 μg/ml heparin (□). The amount of radioactivity internalized and degraded was determined at the indicated time intervals. […] The plotted values are means of duplicate determinations.
Mouse fibroblasts (2×10^5 cells/well) were incubated for 18 h at 37° C. with ^125I-APPs770 (10 nM) in the absence of competitor or in the presence of either heparin (100 μg/ml), chloroquine (0.1 mM), RAP (1 μM), affinity purified anti-LRP IgG (100 μg/ml), or control IgG against the cytoplasmic domain of LRP (100 μg/ml). Panels show the amount of ^125I-APPs770 degraded by mouse fibroblasts expressing LRP (A) or ones deficient in LRP expression (B). The data shown are means of duplicate determinations±S. E.
Wells containing 2×10^5 LRP-expressing (MEF) or LRP-deficient (PEA13) cells were incubated with ^125I-APPs770 (5 nM) or ^125I-APPs770:FIXa (3 nM) for 18 h at 37° C. in the absence of competitor or in the presence of 1 μM RAP. The amount of ^125I-labeled APPs770 or ^125I-APPs770:Factor IXa degraded by LRP-expressing MEF cells is shown in panel A and that by LRP-deficient PEA13 cells in panel B. Plotted values represent means of duplicate determinations.
Mouse fibroblasts (2×10^5) were incubated for 18 h at 37° C. with ^125I-APP/PN-2 (8.8 nM) in the absence of competitor or in the presence of either RAP (1 μM)), 10 μg/ml apoE3/βVLDL, 10 μg/ml apoE4/βVLDL, or 10 μg/ml βVLDL. […]

[2] = test system: LRP-deficient (PEA13) cells; assay: Cellular internalization and degradation of 125I-labeled ligands by LRP-deficient mouse fibroblasts; format: cell-based
Procedure: as §1
Wells containing 2×10^5 LRP-expressing (●) or LRP-deficient (∘) mouse fibroblasts were incubated with ^125I-LDL (8 μg/ml) or ^125I-α2M* (1.4 nM) for selected time intervals. […]
Mouse fibroblasts (2×10^5 cells per well) were incubated for selected times with ^125I-APPs770 (1 nM) in the absence of competitor (●) or in the presence of either 1 μM RAP (∘), or 100 μg/ml heparin (□). The amount of radioactivity internalized and degraded was determined at the indicated time intervals. […]

Chain of LRP (Q07954 20-3943 limits assumed): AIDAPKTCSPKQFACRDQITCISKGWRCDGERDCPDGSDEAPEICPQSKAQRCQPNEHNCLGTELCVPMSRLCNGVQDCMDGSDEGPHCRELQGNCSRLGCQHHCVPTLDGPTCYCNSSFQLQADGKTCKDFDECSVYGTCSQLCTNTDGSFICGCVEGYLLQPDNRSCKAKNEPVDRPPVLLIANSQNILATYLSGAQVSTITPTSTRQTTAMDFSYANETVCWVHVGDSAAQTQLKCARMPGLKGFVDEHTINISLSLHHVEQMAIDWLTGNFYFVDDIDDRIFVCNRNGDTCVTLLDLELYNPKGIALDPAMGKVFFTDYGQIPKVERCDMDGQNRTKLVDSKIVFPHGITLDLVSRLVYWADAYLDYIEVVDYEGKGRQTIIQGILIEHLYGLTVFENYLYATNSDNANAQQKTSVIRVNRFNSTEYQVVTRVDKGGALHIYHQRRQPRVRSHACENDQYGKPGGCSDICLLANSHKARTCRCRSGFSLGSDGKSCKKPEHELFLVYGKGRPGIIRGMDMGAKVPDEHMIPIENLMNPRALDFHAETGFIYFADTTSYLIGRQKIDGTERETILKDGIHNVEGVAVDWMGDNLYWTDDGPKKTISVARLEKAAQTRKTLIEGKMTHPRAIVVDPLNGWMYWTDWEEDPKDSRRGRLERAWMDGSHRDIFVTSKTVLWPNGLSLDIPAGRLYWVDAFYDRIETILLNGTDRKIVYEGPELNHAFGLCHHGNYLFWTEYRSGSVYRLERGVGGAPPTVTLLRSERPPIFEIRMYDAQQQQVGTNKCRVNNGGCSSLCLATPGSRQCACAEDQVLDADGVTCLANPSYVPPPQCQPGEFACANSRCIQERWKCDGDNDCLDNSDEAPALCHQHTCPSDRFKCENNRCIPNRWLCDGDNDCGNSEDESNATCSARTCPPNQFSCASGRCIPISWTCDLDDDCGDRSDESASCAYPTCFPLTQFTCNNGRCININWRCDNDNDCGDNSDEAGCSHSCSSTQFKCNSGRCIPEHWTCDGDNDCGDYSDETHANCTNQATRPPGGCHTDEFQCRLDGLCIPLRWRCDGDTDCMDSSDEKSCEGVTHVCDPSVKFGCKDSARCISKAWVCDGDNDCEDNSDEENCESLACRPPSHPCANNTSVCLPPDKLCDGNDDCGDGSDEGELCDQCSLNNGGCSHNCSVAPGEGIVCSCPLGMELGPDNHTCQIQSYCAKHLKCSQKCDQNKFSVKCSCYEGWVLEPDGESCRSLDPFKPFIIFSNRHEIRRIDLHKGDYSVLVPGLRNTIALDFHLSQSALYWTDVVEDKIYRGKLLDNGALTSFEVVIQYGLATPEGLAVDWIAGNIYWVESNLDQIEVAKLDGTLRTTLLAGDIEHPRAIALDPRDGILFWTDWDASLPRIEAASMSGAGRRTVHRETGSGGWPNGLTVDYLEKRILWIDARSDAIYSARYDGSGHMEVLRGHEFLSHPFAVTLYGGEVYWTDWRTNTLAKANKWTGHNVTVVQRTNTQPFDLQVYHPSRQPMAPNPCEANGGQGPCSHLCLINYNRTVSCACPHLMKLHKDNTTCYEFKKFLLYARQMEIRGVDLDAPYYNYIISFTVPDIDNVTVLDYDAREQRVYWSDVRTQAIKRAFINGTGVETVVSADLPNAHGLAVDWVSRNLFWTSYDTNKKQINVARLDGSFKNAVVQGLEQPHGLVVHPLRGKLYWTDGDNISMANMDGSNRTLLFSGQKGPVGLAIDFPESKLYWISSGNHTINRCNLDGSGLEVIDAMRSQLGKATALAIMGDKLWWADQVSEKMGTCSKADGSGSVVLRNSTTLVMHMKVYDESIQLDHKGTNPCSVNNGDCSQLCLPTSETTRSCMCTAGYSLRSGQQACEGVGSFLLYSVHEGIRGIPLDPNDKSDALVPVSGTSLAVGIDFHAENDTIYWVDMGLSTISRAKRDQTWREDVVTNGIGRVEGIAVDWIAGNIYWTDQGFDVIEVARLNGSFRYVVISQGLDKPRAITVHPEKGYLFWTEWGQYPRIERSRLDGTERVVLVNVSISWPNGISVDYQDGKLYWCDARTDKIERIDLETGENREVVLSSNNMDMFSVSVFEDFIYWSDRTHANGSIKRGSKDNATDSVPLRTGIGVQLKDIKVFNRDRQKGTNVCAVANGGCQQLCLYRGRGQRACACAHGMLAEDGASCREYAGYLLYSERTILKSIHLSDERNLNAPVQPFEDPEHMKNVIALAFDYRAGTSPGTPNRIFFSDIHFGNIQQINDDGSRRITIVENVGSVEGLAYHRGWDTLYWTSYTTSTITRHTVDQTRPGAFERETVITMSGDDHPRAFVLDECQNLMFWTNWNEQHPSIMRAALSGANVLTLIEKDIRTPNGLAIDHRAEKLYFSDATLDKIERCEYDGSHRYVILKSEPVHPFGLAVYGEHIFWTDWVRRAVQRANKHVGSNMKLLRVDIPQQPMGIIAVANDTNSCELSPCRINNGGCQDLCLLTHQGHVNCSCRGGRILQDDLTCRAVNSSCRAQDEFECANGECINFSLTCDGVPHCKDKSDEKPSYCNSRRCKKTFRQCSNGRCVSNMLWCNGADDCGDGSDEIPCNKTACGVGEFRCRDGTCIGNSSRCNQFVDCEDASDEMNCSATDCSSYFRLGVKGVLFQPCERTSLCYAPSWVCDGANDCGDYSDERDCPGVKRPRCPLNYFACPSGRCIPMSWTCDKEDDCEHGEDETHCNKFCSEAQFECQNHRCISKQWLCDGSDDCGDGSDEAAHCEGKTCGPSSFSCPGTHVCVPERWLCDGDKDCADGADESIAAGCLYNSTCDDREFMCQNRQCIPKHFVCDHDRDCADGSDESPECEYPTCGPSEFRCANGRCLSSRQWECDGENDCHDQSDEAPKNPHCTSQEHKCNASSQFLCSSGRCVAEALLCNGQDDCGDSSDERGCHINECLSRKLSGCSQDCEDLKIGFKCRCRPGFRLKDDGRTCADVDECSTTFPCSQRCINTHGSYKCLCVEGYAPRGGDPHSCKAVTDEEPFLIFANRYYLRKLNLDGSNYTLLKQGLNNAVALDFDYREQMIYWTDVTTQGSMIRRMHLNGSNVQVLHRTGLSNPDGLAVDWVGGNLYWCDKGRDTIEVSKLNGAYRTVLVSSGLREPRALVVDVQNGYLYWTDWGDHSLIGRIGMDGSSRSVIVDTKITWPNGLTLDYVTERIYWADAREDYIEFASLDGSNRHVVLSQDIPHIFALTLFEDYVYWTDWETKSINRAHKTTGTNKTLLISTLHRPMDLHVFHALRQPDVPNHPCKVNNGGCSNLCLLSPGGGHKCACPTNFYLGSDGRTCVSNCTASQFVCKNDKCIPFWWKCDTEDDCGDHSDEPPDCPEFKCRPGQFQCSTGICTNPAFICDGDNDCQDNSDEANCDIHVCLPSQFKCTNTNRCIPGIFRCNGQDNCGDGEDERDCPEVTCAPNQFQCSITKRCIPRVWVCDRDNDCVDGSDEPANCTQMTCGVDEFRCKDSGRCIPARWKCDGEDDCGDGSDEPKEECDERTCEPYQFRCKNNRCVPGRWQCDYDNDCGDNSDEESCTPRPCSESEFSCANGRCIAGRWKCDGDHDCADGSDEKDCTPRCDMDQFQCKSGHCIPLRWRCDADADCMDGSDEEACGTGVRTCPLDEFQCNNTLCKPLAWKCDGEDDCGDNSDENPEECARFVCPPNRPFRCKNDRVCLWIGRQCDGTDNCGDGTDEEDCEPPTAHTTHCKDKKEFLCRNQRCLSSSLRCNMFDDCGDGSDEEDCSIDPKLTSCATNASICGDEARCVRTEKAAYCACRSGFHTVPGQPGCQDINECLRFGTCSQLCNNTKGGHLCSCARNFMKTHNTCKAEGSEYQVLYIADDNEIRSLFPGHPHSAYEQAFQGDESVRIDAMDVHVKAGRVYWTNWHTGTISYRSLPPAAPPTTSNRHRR
Chain of LRP (Q07954 3944-4544 partner limits assumed): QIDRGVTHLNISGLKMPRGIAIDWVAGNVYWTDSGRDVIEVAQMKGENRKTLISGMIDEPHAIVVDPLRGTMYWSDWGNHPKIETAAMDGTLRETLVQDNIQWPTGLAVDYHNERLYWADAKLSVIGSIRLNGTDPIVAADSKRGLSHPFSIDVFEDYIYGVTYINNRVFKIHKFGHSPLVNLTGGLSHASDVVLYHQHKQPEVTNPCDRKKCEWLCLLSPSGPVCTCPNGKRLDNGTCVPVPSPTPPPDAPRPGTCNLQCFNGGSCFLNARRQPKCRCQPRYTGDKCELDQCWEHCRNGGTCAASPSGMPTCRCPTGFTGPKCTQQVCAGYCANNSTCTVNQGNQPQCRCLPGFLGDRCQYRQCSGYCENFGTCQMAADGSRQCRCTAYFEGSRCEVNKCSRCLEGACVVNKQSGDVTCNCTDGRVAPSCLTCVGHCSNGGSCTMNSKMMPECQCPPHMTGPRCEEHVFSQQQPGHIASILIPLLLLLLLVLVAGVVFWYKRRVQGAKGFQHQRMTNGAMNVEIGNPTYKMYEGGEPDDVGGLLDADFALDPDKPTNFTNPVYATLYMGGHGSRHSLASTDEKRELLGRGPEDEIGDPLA

RAP: 39 kDa receptor associated protein that binds members of the LDL receptor family and blocks their ligand binding capacity
inhibition of APP binding to LRP (LRP): inhibition of APP binding
inhibition of 125I-APPs770 degradation by apoE isoforms/βVLDL or RAP ([1]; 18 h at 37° C., 125I-APP/PN-2 8.8 nM, 10 μg/ml apoE/βVLDL or RAP 1 μM, F(4,15)=21.65, p=0.0001, p<0.05 vs βVLDL alone, RAP p<0.001): statistically significant
inhibition of catabolism/degradation of APP (125I-APPs770) by added competitor ([1]; LRP-containing fibroblasts, RAP 1 μM, anti-LRP IgG 100 μg/ml): inhibition of catabolism of APP; also recorded: inhibition of degradation

heparin
inhibition of internalization of APP (125I-APPs770) ([2]; 125I-APPs770 1 nM, heparin 100 μg/ml): inhibition of internalization of APP
inhibition of internalization of APP (125I-APPs770) ([1]; LRP-containing fibroblasts, 125I-APPs770 1 nM, heparin 100 μg/ml): inhibition of internalization of APP

B1: α2-macroglobulin: 125I-labeled α2-macroglobulin, LRP ligand control (protein, UniProt P01023 24-1474, looked up)
Alpha-2-macroglobulin: SVSGKPQYMVLVPSLLHTETTEKGCVLLSYLNETVTVSASLESVRGNRSLFTDLEAENDVLHCVAFAVPKSSSNEEVMFLTVQVKGPTQEFKKRTTVMVKNEDSLVFVQTDKSIYKPGQTVKFRVVSMDENFHPLNELIPLVYIQDPKGNRIAQWQSFQLEGGLKQFSFPLSSEPFQGSYKVVVQKKSGGRTEHPFTVEEFVLPKFEVQVTVPKIITILEEEMNVSVCGLYTYGKPVPGHVTVSICRKYSDASDCHGEDSQAFCEKFSGQLNSHGCFYQQVKTKVFQLKRKEYEMKLHTEAQIQEEGTVVELTGRQSSEITRTITKLSFVKVDSHFRQGIPFFGQVRLVDGKGVPIPNKVIFIRGNEANYYSNATTDEHGLVQFSINTTNVMGTSLTVRVNYKDRSPCYGYQWVSEEHEEAHHTAYLVFSPSKSFVHLEPMSHELPCGHTQTVQAHYILNGGTLLGLKKLSFYYLIMAKGGIVRTGTHGLLVKQEDMKGHFSISIPVKSDIAPVARLLIYAVLPTGDVIGDSAKYDVENCLANKVDLSFSPSQSLPASHAHLRVTAAPQSVCALRAVDQSVLLMKPDAELSASSVYNLLPEKDLTGFPGPLNDQDNEDCINRHNVYINGITYTPVSSTNEKDMYSFLEDMGLKAFTNSKIRKPKMCPQLQQYEMHGPEGLRVGFYESDVMGRGHARLVHVEEPHTETVRKYFPETWIWDLVVVNSAGVAEVGVTVPDTITEWKAGAFCLSEDAGLGISSTASLRAFQPFFVELTMPYSVIRGEAFTLKATVLNYLPKCIRVSVQLEASPAFLAVPVEKEQAPHCICANGRQTVSWAVTPKSLGNVNFTVSAEALESQELCGTEVPSVPEHGRKDTVIKPLLVEPEGLEKETTFNSLLCPSGGEVSEELSLKLPPNVVEESARASVSVLGDILGSAMQNTQNLLQMPYGCGEQNMVLFAPNIYVLDYLNETQQLTPEIKSKAIGYLNTGYQRQLNYKHYDGSYSTFGERYGRNQGNTWLTAFVLKTFAQARAYIFIDEAHITQALIWLSQRQKDNGCFRSSGSLLNNAIKGGVEDEVTLSAYITIALLEIPLTVTHPVVRNALFCLESAWKTAQEGDHGSHVYTKALLAYAFALAGNQDKRKEVLKSLNEEAVKKDNSVHWERPQKPKAPVGHFYEPQAPSAEVEMTSYVLLAYLTAQPAPTSEDLTSATNIVKWITKQQNAQGGFSSTQDTVVALHALSKYGAATFTRTGKAAQVTIQSSGTFSSKFQVDNNNRLLLQQVSLPELPGEYSMKVTGEGCVYLQTSLKYNILPEKEEFPFALGVQTLPQTCDEPKAHTSFQISLSVSYTGSRSASNMAIVDVKMVSGFIPLKPTVKMLERSNHVSRTEVSSNHVLIYLDKVSNQTLSLFFTVLQDVPVRDLKPAIVKVYDYYETDEFAIAEYNAPCSKDLGNA
modifications: 125I label
notes: 125I-labeled α2-macroglobulin, LRP ligand control
catabolism (internalization and degradation) of 125I-labeled ligand by cells ([2]; 37° C., no competitor): lack of both internalization and degradation
catabolism (internalization and degradation) of 125I-labeled ligand by cells ([1]; LRP-containing fibroblasts, 37° C., no competitor): internalization and degradation
